# Test results published in ChEMBL document CHEMBL5579826, “Discovery of autophagy-tethering compounds as potent NLRP3 degraders for IBD Immunotherapy” (Eur J Med Chem, 2024).
# Activity calls are given as the source filed them. No cut-off for these calls is given here.
# Experiments:
# [1] = target: Interleukin-1 beta (Homo sapiens) (UniProt P01584); experiment: Inhibition of IL-1beta in PMA-differentiated human THP-1 cells at 200 nM co-incubated with compound and LPS for 24 hrs by ELISA relative to control; format: cell-based
# Sequence of Interleukin-1 beta (Homo sapiens) (P01584 117-269 limits assumed): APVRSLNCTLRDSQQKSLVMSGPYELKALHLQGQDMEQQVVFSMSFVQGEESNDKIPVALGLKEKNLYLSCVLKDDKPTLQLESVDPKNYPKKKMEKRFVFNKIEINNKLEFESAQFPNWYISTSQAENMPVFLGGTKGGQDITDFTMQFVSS
# [2] = target: Interleukin-1 beta (Homo sapiens) (UniProt P01584); experiment: Inhibition of IL-1beta in PMA-differentiated human THP-1 cells at 100 nM co-incubated with compound and LPS for 24 hrs by ELISA relative to control; format: cell-based
# Mus musculus [3] = experiment: Anti-inflammatory activity in DSS-induced colitis C57BL/6 mouse model assessed as reduction in loss of intestinal crypts in colon tissue at 5 to 20 mg/kg, ip administered daily for 10 days by H and E staining based analysis; format: functional, organism-based; conditions: dose 5-20 mg/kg, time 10.0 day
# [4] = Apparent volume of distribution in C57BL/6J mouse at 5 mg/kg, iv measured for 24 hrs by LC-MS/MS analysis; format: ADME, organism-based; conditions: in vivo, read-out: Vz
# [5] = AUC (0 to infinity) in C57BL/6J mouse at 5 mg/kg, iv measured for 24 hrs by LC-MS/MS analysis; format: ADME, organism-based; conditions: in vivo
# Mus musculus [6] = experiment: Anti-inflammatory activity in DSS-induced colitis C57BL/6 mouse model harboring NLRP3 KO assessed as reduction in inflammatory cell infiltration in colon tissue at 20 mg/kg, ip administered daily for 10 days by H and E staining based analysis; format: functional, organism-based; conditions: time 10.0 day
# [7] = Oral bioavailability in C57BL/6J mouse at 5 mg/kg measured for 24 hrs by LC-MS/MS analysis; format: ADME, organism-based; conditions: in vivo
# Mus musculus [8] = experiment: Anti-inflammatory activity in DSS-induced colitis C57BL/6 mouse model assessed as suppression of disease activity index administered intraperitoneally daily for 10 days; format: functional, organism-based; conditions: dose 5-20 mg/kg, route ip, time 10.0 day
# [9] = Clearance in C57BL/6J mouse at 5 mg/kg, iv measured for 24 hrs by LC-MS/MS analysis; format: ADME, organism-based; conditions: in vivo
# [10] = AUC (0 to t) in C57BL/6J mouse at 5 mg/kg, ip measured for 24 hrs by LC-MS/MS analysis; format: ADME, organism-based; conditions: in vivo
# Mus musculus [11] = experiment: Anti-inflammatory activity in DSS-induced colitis C57BL/6 mouse model harboring NLRP3 KO assessed as reduction in IL-1beta level at 20 mg/kg, ip administered daily for 10 days […]; format: functional, organism-based; conditions: time 10.0 day
# [12] = AUC (0 to infinity) in C57BL/6J mouse at 5 mg/kg, ip measured for 24 hrs by LC-MS/MS analysis; format: ADME, organism-based; conditions: in vivo
# Mus musculus [13] = experiment: Anti-inflammatory activity in DSS-induced colitis C57BL/6 mouse model assessed as reduction in weight loss at 5 to 20 mg/kg, ip administered daily for 10 days; format: functional, organism-based; conditions: dose 5-20 mg/kg, time 10.0 day
# Mus musculus [14] = experiment: Anti-inflammatory activity in DSS-induced colitis C57BL/6 mouse model harboring NLRP3 KO assessed as reduction in loss of intestinal crypts in colon tissue at 20 mg/kg, ip administered daily for 10 days by H and E staining based analysis; format: functional, organism-based; conditions: time 10.0 day
# [15] = Volume of distribution at steady state in C57BL/6J mouse at 5 mg/kg, iv measured for 24 hrs by LC-MS/MS analysis; format: ADME, organism-based; conditions: in vivo, read-out: Vdss
# [16] = Half life in C57BL/6J mouse at 5 mg/kg, iv measured for 24 hrs by LC-MS/MS analysis; format: ADME, organism-based; conditions: in vivo
# THP-1 [17] = experiment: Cytotoxicity against PMA-differentiated human THP-1 cells assessed as reduction in cell viability at 50 to 5000 nM incubated for 24 hrs by MTT assay; format: toxicity, cell-based; conditions: thp-1, 24 h, 5 µM, dose 50-5000 nM
# Mus musculus [18] = experiment: Anti-inflammatory activity in DSS-induced colitis C57BL/6 mouse model harboring NLRP3 KO assessed as reduction in intestinal mucosal damage in colon tissue at 20 mg/kg, ip administered daily for 10 days by H and E staining based analysis; format: functional, organism-based; conditions: time 10.0 day
# Mus musculus [19] = experiment: Anti-inflammatory activity in DSS-induced colitis C57BL/6 mouse model harboring NLRP3 KO assessed as reduction in colon length shortening at 20 mg/kg, ip administered daily for 10 days; format: functional, organism-based; conditions: time 10.0 day
# [20] = Half life in C57BL/6J mouse at 5 mg/kg, ip measured for 24 hrs by LC-MS/MS analysis; format: ADME, organism-based; conditions: in vivo
# Mus musculus [21] = experiment: Anti-inflammatory activity in DSS-induced colitis C57BL/6 mouse model assessed as reduction in intestinal mucosal damage in colon tissue at 5 to 20 mg/kg, ip administered daily for 10 days by H and E staining based analysis; format: functional, organism-based; conditions: dose 5-20 mg/kg, time 10.0 day
# Mus musculus [22] = experiment: Anti-inflammatory activity in DSS-induced colitis C57BL/6 mouse model assessed as reduction in IL-1beta level in colon tissue at 5 to 20 mg/kg, ip administered daily for 10 days by IHC analysis; format: functional, organism-based; conditions: dose 5-20 mg/kg, time 10.0 day
# THP-1 [23] = experiment: Effect on NLRP3 mRNA expression in PMA-differentiated human THP-1 cells co-incubated with compound and LPS for 24 hrs by qRT-PCR analysis; format: functional, cell-based
# Mus musculus [24] = experiment: Anti-inflammatory activity in DSS-induced colitis C57BL/6 mouse model assessed as reduction in colon tissue shortening at 5 to 20 mg/kg, ip administered daily for 10 days; format: functional, organism-based; conditions: dose 5-20 mg/kg, time 10.0 day
# Mus musculus [25] = experiment: Anti-inflammatory activity in DSS-induced colitis C57BL/6 mouse model assessed as reduction in NLRP3 level in colon tissue at 5 to 20 mg/kg, ip administered daily for 10 days by IHC analysis; format: functional, organism-based; conditions: dose 5-20 mg/kg, time 10.0 day
# Mus musculus [26] = experiment: Anti-inflammatory activity in DSS-induced colitis C57BL/6 mouse model assessed as reduction in inflammatory cell infiltration in colon tissue at 5 to 20 mg/kg, ip administered daily for 10 days by H and E staining based analysis; format: functional, organism-based; conditions: dose 5-20 mg/kg, time 10.0 day
# [27] = AUC (0 to t) in C57BL/6J mouse at 5 mg/kg, iv measured for 24 hrs by LC-MS/MS analysis; format: ADME, organism-based; conditions: in vivo
# [28] = Cmax in C57BL/6J mouse at 5 mg/kg, ip measured for 24 hrs by LC-MS/MS analysis; format: ADME, organism-based; conditions: in vivo
smiles,measurement,setting,value
O=C(Nc1c2c(cc3c1CCC3)CCC2)NS(=O)(=O)c1ccc(OCCCCN2C(=O)/C(=C/c3cc(Br)c(O)c(Br)c3)c3cc(I)ccc32)cc1,inhibition,[1],48.5%
same,inhibition,[2],43.1%
O=C(Nc1c2c(cc3c1CCC3)CCC2)NS(=O)(=O)c1ccc(OCCCCCCCCCCCCN2C(=O)/C(=C/c3cc(Br)c(O)c(Br)c3)c3cc(Br)ccc32)cc1,inhibition,[1],19.5%
same,inhibition,[2],14.8%
O=C(Nc1c2c(cc3c1CCC3)CCC2)NS(=O)(=O)c1ccc(OCCOCCOCCOCCN2C(=O)/C(=C/c3cc(Br)c(O)c(Br)c3)c3cc(Br)ccc32)cc1,inhibition,[1],66.6%
same,inhibition,[2],6.7%
O=C(Nc1c2c(cc3c1CCC3)CCC2)NS(=O)(=O)c1ccc(OCCOCCOCCOCCN2C(=O)/C(=C/c3cc(Br)c(O)c(Br)c3)c3cc(I)ccc32)cc1,Activity,Mus musculus [3],Active
same,Vd,[4],2.31 L/kg
same,AUC(0-inf),[5],2970 ng·h/mL
same,Activity,Mus musculus [6],inactive
same,bioavailability,[7],19%
same,Activity,Mus musculus [8],Dose-Dependent Effect
same,clearance,[9],28.4 mL/min/kg
same,AUC(0-t) at 24 h,[10],551 ng·h/mL
same,Activity,Mus musculus [11],inactive
same,inhibition,[1],73.6%
same,AUC(0-inf),[12],562 ng·h/mL
same,Activity,Mus musculus [13],Active
same,Activity,Mus musculus [14],inactive
same,Vd,[15],0.39 L/kg
same,half-life,[16],0.94 h
same,Activity,THP-1 [17],Non-Toxic
same,Activity,Mus musculus [18],inactive
same,inhibition,[2],45.8%
same,Activity,Mus musculus [19],inactive
same,half-life,[20],1.26 h
same,Activity,Mus musculus [21],Active
same,Activity,Mus musculus [22],Active
same,Activity,THP-1 [23],inactive
same,Activity,Mus musculus [24],Active
same,Activity,Mus musculus [25],Active
same,Activity,Mus musculus [26],Active
same,AUC(0-t) at 24 h,[27],2960 ng·h/mL
same,Cmax,[28],555 ng/mL
O=C(Nc1c2c(cc3c1CCC3)CCC2)NS(=O)(=O)c1ccc(OCCCCN2C(=O)/C(=C/c3cc(Br)c(O)c(Br)c3)c3cc(Br)ccc32)cc1,inhibition,[1],49.2%
same,inhibition,[2],42.8%
COc1ccc(Cl)cc1C(=O)NCCc1ccc(S(=O)(=O)NCCOCCOCCOCCN2C(=O)/C(=C/c3cc(Br)c(O)c(OC)c3)c3cc(Br)ccc32)cc1,inhibition,[1],-4.9%
same,inhibition,[2],8.2%
O=C(Nc1c2c(cc3c1CCC3)CCC2)NS(=O)(=O)c1ccc(OCCOCCOCCN2C(=O)/C(=C/c3cc(Br)c(O)c(Br)c3)c3cc(Br)ccc32)cc1,inhibition,[1],45.2%
same,inhibition,[2],17.8%
COc1ccc(Cl)cc1C(=O)NCCc1ccc(S(=O)(=O)NCCCCCCCCCCN2C(=O)/C(=C/c3cc(Br)c(O)c(OC)c3)c3cc(Br)ccc32)cc1,inhibition,[1],28%
same,inhibition,[2],7.3%
O=C(Nc1c2c(cc3c1CCC3)CCC2)NS(=O)(=O)c1ccc(OCCOCCN2C(=O)/C(=C/c3cc(Br)c(O)c(Br)c3)c3cc(I)ccc32)cc1,inhibition,[1],98.2%
same,inhibition,[2],70.4%
O=C(Nc1c2c(cc3c1CCC3)CCC2)NS(=O)(=O)c1ccc(OCCOCCOCCN2C(=O)/C(=C/c3cc(Br)c(O)c(Br)c3)c3cc(I)ccc32)cc1,inhibition,[1],41.7%
same,inhibition,[2],50.5%
COc1cc(/C=C2/C(=O)N(CCOCCOCCOc3ccc(S(=O)(=O)NC(=O)Nc4c5c(cc6c4CCC6)CCC5)cc3)c3ccc(Br)cc32)cc(Br)c1O,inhibition,[1],39.1%
same,inhibition,[2],16.5%
O=C(Nc1c2c(cc3c1CCC3)CCC2)NS(=O)(=O)c1ccc(OCCCCCCCCN2C(=O)/C(=C/c3cc(Br)c(O)c(Br)c3)c3cc(I)ccc32)cc1,inhibition,[1],26.5%
same,inhibition,[2],41.9%
